Source: patent US20040110825A1, “Method for treating sepsis” (priority 2003, published 2004)

Assays:
[1] = tested on: patients with severe sepsis; test: Phase 2 multicenter, double-blind, placebo-controlled trial: 28-day all-cause mortality; type: in vivo, human; conditions: for effect on mortality compared to placebo: administration started within 24 hours after first organ failure, continued up to 7 days
Protocol: FIG. 3 represents a plot of 28-day mortality by treatment (Y-axis) against time after first organ failure at which a sPLA2 inhibitor compound of formula I was administered (X-axis). […] Administration of a “high dose” of sPLA2 inhibitor compound of formula (I), at the same time frame (i.e., less than 12 hours after first organ failure) was associated with a mortality of 5.4% (bar 3). […] The efficacy of a sPLA2 inhibitor administered at 0-24 hours, preferably 0-12 hours, after first organ failure is particularly significant when a “high dose” sPLA2 inhibitor compound is administered.
The data were analyzed using the Cochran-Mantel-Haenszel test adjusted for the trial primary stratification factors at a two-sided 5% significance level. The overall treatment effect as well as for pair-wise comparisons were analyzed.
Study participants were included in the study if they met all of the criteria listed below. It is anticipated that almost all patients meeting these criteria would have been in an acute care area of the hospital such as an intensive care unit, step-down unit, emergency ward, or recovery room. The events satisfying these inclusion criteria must have been attributable to the onset of sepsis and not attributable to an underlying disease process or to the effects of concomitant therapy.
[3] Have had at least one of the following sepsis-induced organ failures within the 24-hour time period immediately preceding entry into the study:
The mortality data from the study are shown in diagrams 1 through 3.

SMILES: NC(=O)C1CCCc2c1c1cc(OCCCC(=O)O)ccc1n2Cc1ccccc1 (stereo not shown)
- melting point: 199 to 200 °C

SMILES: COc1ccc2c(c1)c1c(n2Cc2ccccc2)CCCC1C(N)=O (stereo not shown)
- melting point: 154 to 156 °C

SMILES: CCc1cc2c(cc1OCCCP(=O)(O)O)c1c(n2Cc2ccccc2)CCCC1C(N)=O (stereo not shown)
- melting point: 235 to 238 °C (dec.)

SMILES: COc1cc(OC)c2c3c(n(Cc4ccccc4)c2c1)CCCC3C(=O)NN (stereo not shown)
- melting point: 189 to 190 °C

SMILES: CCCCCCCCc1cc2c(cc1OCCCP(=O)(O)O)c1c(n2Cc2ccccc2)CCCC1C(N)=O (stereo not shown)
- melting point: 160 to 162 °C

SMILES: CCc1c(C(=O)C(N)=O)c2c(OCC(=O)O)cccc2n1Cc1ccccc1 [compound (Vb)]
- effect on mortality compared to placebo [1]: significant reduction in mortality
- effect on mortality compared to placebo ([1]; listed as LY315920): statistically significant reduction in mortality
- 28 day mortality by treatment ([1]; high dose (target 800 ng/mL), administered between 12 and 24 hours after first organ failure, FIG. 3 bar 6, placebo 35.1%): 31.5%
- 28 day mortality by treatment ([1]; high dose (target plasma concentration 800 ng/mL), administered less than 12 hours after first organ failure, FIG. 3 bar 3, placebo 42.9%): 5.4%
- 28 day mortality by treatment ([1]; low dose (target 200 ng/mL), administered between 12 and 24 hours after first organ failure, FIG. 3 bar 5, placebo 35.1%): 38.2%
- 28 day mortality by treatment ([1]; low dose (target plasma concentration 200 ng/mL), administered less than 12 hours after first organ failure, FIG. 3 bar 2, placebo 42.9%): 19.2%
- reduction in mortality, significance ([1]; low dose and high dose administered at 0-12 hours after first organ failure, Cochran-Mantel-Haenszel test, two-sided 5%): statistically significant

SMILES: NC(=O)C1CCCc2c1c1cc(OCCCP(=O)(O)O)ccc1n2Cc1ccccc1 (stereo not shown)
- melting point: 200 to 201 °C
